Results on 3 compounds are retold here after ChEMBL document CHEMBL3046901, “3D-pharmacophore model based virtual screening to identify dual-binding site and selective acetylcholinesterase inhibitors” (Med Chem Res, 2011).

In the experiment the target is Acetylcholinesterase (Homo sapiens, UniProt P22303). Kind of experiment: Inhibition of acetylcholinesterase (unknown origin).
Chain of Acetylcholinesterase (P22303 whole entry): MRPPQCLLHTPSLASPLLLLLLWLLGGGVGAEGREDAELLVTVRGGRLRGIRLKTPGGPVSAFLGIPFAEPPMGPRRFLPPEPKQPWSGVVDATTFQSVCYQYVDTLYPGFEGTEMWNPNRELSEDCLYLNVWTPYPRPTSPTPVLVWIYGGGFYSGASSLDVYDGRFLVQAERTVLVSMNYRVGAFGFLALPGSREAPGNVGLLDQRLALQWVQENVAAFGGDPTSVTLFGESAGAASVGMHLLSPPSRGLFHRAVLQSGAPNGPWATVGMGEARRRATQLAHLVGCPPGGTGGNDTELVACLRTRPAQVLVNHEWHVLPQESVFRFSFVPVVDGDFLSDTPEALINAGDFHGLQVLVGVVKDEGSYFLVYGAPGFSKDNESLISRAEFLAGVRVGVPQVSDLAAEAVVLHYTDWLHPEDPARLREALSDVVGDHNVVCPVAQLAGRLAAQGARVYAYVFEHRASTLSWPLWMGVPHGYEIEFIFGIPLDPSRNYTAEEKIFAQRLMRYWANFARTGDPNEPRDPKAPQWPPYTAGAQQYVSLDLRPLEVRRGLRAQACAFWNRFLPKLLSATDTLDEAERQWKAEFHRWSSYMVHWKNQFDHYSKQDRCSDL
`CNCOc1cccc(CN(C)CCCCCCCOc2ccc3c(=O)c4ccccc4oc3c2)c1` returned a half-inhibitory concentration (IC50) of 0.32 nM.
The same measure for `CCN(CCCCCOc1ccc2c(=O)c3ccccc3oc2c1)Cc1cccc(OC(=O)NC)c1`: 0.82 nM; for `CN(CCCCCOc1ccc2c(=O)c3ccccc3oc2c1)Cc1ccccc1`: 6250 nM.
